Reference: article PMC11672294, “The Antipsychotic Drug Aripiprazole Suppresses Colorectal Cancer by Targeting LAMP2a to Induce RNH1/miR‐99a/mTOR‐Mediated Autophagy and Apoptosis” (Advanced Science, 2024)
Where a name gives a salt, the structure may show the parent alone. Starred links: 1 amine or outer side, 2 acyl side, 3 side chain; linkers in the order of their positions; H or OH if unused. Positions of bridges follow the written chain, without caps; N, C: chain ends. Non-standard residues stand in square brackets, D forms with d. Residues, ends and D or L forms follow the SMILES beside them. *: point of attachment. pTerphenylCO(4''-OnC5H11) = CCCCCOc1ccc(-c2ccc(-c3ccc(C(=O)*)cc3)cc2)cc1; Orn(4R-OH,5R-OH) = O=C([C@H](C[C@@H](O)[C@@H](O)N[*:3])N[*:1])[*:2]; hTyr(3S-OH,4S-OH) = N[C@H](C(=O)O)[C@H](O)[C@@H](O)c1ccc(O)cc1; Pro(3S-OH,4S-Me) = C[C@H]1CN[C@H](C(=O)O)[C@H]1O; Hyp = O=C(O)[C@@H]1C[C@@H](O)CN1

Each molecule was assayed on HT29. Conditions: 72 h, relative to DMSO, 10 µM, Relative cell viability (%).
Procedure, shortened: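 Cells were exposed to drug for 72 h, then to WST-1 for 2 h at 37 °C, and absorbance was read at 450 nm as viability against DMSO treatment. In the screen, each compound was applied at 10 µM.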
In the case of C[C@@H]1CCN(C(=O)CC#N)C[C@@H]1N(C)c1ncnc2[nH]ccc12 [Tofacitinib (CP-690550,Tasocitinib)], the “Relative cell viability (%)” value is reported as 51.94%. With COc1ccccc1Oc1c(NS(=O)(=O)c2ccc(C(C)(C)C)cc2)nc(-c2ncccn2)nc1OCCO [Bosentan] the “Relative cell viability (%)” value was 63.94%. COc1cc(Nc2ncc(F)c(Nc3ccc4c(n3)N(COP(=O)(O)O)C(=O)C(C)(C)O4)n2)cc(OC)c1OC [R788 (Fostamatinib) Disodium] was tested, and the “Relative cell viability (%)” value was 100.8%.

Same assay, conditions: 72 h, relative to DMSO; 10 µM
In the case of CCCCCCCCCCCCCCCC(=O)O[C@@H]1[C@@H](O)[C@@H](O)[C@@H]([C@H](NC(=O)[C@@H]2C[C@@H](CCC)CN2C)[C@H](C)Cl)O[C@@H]1SC [Clindamycin palmitate HCl], the “Relative cell viability (%)” value is reported as 40.29%. For CCCN(CCC)C(=O)C1=Cc2ccc(-c3ccc(C(=O)N4CCCC4)cc3)cc2N=C(N)C1 [Motolimod (VTX-2337)], the “Relative cell viability (%)” value was 31.62%. Oc1c(Cl)cc(Cl)c2cccnc12 [Chloroxine] was tested, and the “Relative cell viability (%)” value was 69.07%. With COC(=O)C1=CCCN(C)C1 [Arecoline] the “Relative cell viability (%)” value was 59.22%. For N#C[C@@H]1CCCN1C(=O)CNC12CC3CC(CC(O)(C3)C1)C2 [Vildagliptin (LAF-237)], the “Relative cell viability (%)” value was 108.7%. For CN1CCN(c2nc(C3=C(c4c[nH]c5ccccc45)C(=O)NC3=O)c3ccccc3n2)CC1 [Sotrastaurin], the “Relative cell viability (%)” value was 49.03%. With COc1ccc2cccc(CCNC(C)=O)c2c1 [Agomelatine] the “Relative cell viability (%)” value was 61.84%. CCOC(=O)[C@@H](N)Cc1ccc(-c2cc(O[C@H](c3ccc(Cl)cc3-n3ccc(C)n3)C(F)(F)F)nc(N)n2)cc1 [Telotristat Etiprate (LX 1606 Hippurate)] was tested, and the “Relative cell viability (%)” value was 86.05%. In the case of NC(=O)[C@@H]1CCCN1C(=O)[C@H](Cc1cnc[nH]1)NC(=O)[C@@H]1CCC(=O)N1 [Protirelin], the “Relative cell viability (%)” value is reported as 76.5%. For CN1CCN(c2ccc(C(=O)Nc3n[nH]c4ccc(Cc5cc(F)cc(F)c5)cc34)c(NC3CCOCC3)c2)CC1 [Entrectinib (RXDX-101)], the “Relative cell viability (%)” value was 2.137%. For C[C@]12C=CC(=O)C=C1CC[C@@H]1[C@@H]2[C@@H](O)C[C@@]2(C)[C@H]1CC[C@]2(O)C(=O)CO [Prednisolone], the “Relative cell viability (%)” value was 56.36%. With C[C@@H]1[C@H](O)[C@@H](C)/C=C/C=C/CC/C=C/C=C/C=C/C=C/[C@H](O[C@H]2O[C@@H](C)[C@H](O)[C@@H](N)[C@H]2O)C[C@@H]2O[C@](O)(C[C@@H](O)[C@H](O)CC[C@@H](O)C[C@@H](O)C[C@@H](O)CC(=O)O[C@H]1C)C[C@H](O)[C@H]2C(=O)O [Nystatin (Fungicidin)] the “Relative cell viability (%)” value was 170.8%. In the case of CCOC(=O)[C@H](CCc1ccccc1)N[C@H]1CCc2ccccc2N(CC(=O)O)C1=O [Benazepril HCl], the “Relative cell viability (%)” value is reported as 72.74%. For CCCCN1CCCCC1C(=O)Nc1c(C)cccc1C (centres unmarked) [Bupivacaine HCl], the “Relative cell viability (%)” value was 106.7%. With CN(C)CCCN1c2ccccc2Sc2ccc(Cl)cc21 [Chlorpromazine HCl] the “Relative cell viability (%)” value was 93.71%. For CCOC(=O)c1ccc(N)cc1 [Benzocaine], the “Relative cell viability (%)” value was 80.303%. CCCCC(=O)N(Cc1ccc(-c2ccccc2-c2nnn[nH]2)cc1)[C@H](C(=O)O)C(C)C [Valsartan] was tested, and the “Relative cell viability (%)” value was 83.05%. For CCCCNC(=O)NS(=O)(=O)c1ccc(C)cc1 [Tolbutamide], the “Relative cell viability (%)” value was 106.1%. In the case of Nc1c(Br)cc(Br)cc1CN[C@H]1CC[C@H](O)CC1 [Ambroxol HCl], the “Relative cell viability (%)” value is reported as 67.96%. For CCC(=O)O[C@]1(C(=O)SCF)[C@H](C)C[C@H]2[C@@H]3C[C@H](F)C4=CC(=O)C=C[C@]4(C)[C@@]3(F)[C@@H](O)C[C@@]21C [Fluticasone propionate], the “Relative cell viability (%)” value was 173.6%. For CCCCCCCCOc1ccccc1C(=O)Nc1ccc(C(=O)OCC[N+](C)(CC)CC)cc1 [Otilonium Bromide], the “Relative cell viability (%)” value was 59.22%. For CC(CN1c2ccccc2Sc2ccccc21)N(C)C (centres unmarked) [Promethazine HCl], the “Relative cell viability (%)” value was 62.12%. Cn1c(COP(=O)(NCCBr)NCCBr)cnc1[N+](=O)[O-] [TH-302] was tested, and the “Relative cell viability (%)” value was 83.98%. With CCCC1O[C@@H]2C[C@H]3[C@@H]4CCC5=CC(=O)C=C[C@]5(C)[C@H]4[C@@H](O)C[C@]3(C)[C@]2(C(=O)CO)O1 (some centres unmarked) [Budesonide] the “Relative cell viability (%)” value was 83.64%. CN(C)Cc1ccc(S(=O)(=O)n2ccc(/C=C/C(=O)NO)c2)cc1 [Resminostat] was tested, and the “Relative cell viability (%)” value was 19.9%. For N#C/C(=C1/SC[C@@H](c2ccc(Cl)cc2Cl)S1)n1ccnc1 [Luliconazole], the “Relative cell viability (%)” value was 76.67%. CN(C)CC/C=C1/c2ccccc2Sc2ccc(Cl)cc21 [Chlorprothixene] was tested, and the “Relative cell viability (%)” value was 28.39%. C/C(=C\C(=O)OCCCCCCCCC(=O)O)C[C@@H]1OC[C@H](C[C@@H]2O[C@H]2[C@@H](C)[C@H](C)O)[C@@H](O)[C@H]1O [Mupirocin] was tested, and the “Relative cell viability (%)” value was 92.12%. For COCCOC(=O)C1=C(C)NC(C)=C(C(=O)OC(C)C)C1c1cccc([N+](=O)[O-])c1 (centres unmarked) [Nimodipine], the “Relative cell viability (%)” value was 53.81%. With Cc1cccc(C)c1OCC(C)N (centres unmarked) [Mexiletine HCl] the “Relative cell viability (%)” value was 84.85%. CC(=O)O[C@]1(C(C)=O)CC[C@H]2[C@@H]3C[C@H](C)C4=CC(=O)C=C[C@]4(C)[C@@]3(F)[C@@H](O)C[C@@]21C [Fluorometholone Acetate] was tested, and the “Relative cell viability (%)” value was 86.67%. COc1ccccc1N1CCN(CC(O)COc2cccc3ccccc23)CC1 (centres unmarked) [Naftopidil] was tested, and the “Relative cell viability (%)” value was 100.8%. With CCN1CCN(c2cc3c(cc2F)c(=O)c(C(=O)O)cn3C2CC2)CC1 [Enrofloxacin] the “Relative cell viability (%)” value was 78.16%. With CCCN[C@H]1CCc2nc(N)sc2C1 [Pramipexole dihydrochloride monohydrate] the “Relative cell viability (%)” value was 205.2%. COc1ccc(C[C@H](N)C(=O)N[C@H]2[C@@H](O)[C@H](n3cnc4c(N(C)C)ncnc43)O[C@@H]2CO)cc1 [Puromycin 2HCl] was tested, and the “Relative cell viability (%)” value was 0%. With Nc1cc(C(Cl)=C(Cl)Cl)c(S(N)(=O)=O)cc1S(N)(=O)=O [Clorsulon] the “Relative cell viability (%)” value was 49.03%. With CCCCOc1ccc(C(=O)CCN2CCCCC2)cc1 [Dyclonine HCl] the “Relative cell viability (%)” value was 155.2%. For O=C(Nc1cccc2c(=O)cc(-c3nnn[nH]3)oc12)c1ccc(OCCCCc2ccccc2)cc1 [Pranlukast], the “Relative cell viability (%)” value was 81.78%. In the case of CCOc1cc(N)c(Cl)cc1C(=O)NCC1CN(Cc2ccc(F)cc2)CCO1 (centres unmarked) [Mosapride Citrate], the “Relative cell viability (%)” value is reported as 38.47%. For Cc1cc(Nc2cc(CN3CCOCC3)c3nc(C)c(Cc4ccc(Cl)cc4F)n3n2)n[nH]1 [LY2784544], the “Relative cell viability (%)” value was 102.6%. CC1=NN(c2ccc(C)c(C)c2)C(=O)/C1=N\Nc1cccc(-c2cccc(C(=O)O)c2)c1O [Eltrombopag Olamine] was tested, and the “Relative cell viability (%)” value was 122%. In the case of CC[C@@]1(O)C(=O)OCc2c1cc1n(c2=O)Cc2cc3c(CN(C)C)c(O)ccc3nc2-1 [Topotecan HCl], the “Relative cell viability (%)” value is reported as 16.67%. In the case of N#CC(c1ccc(Cl)cc1)c1c(Cl)cc(-n2ncc(=O)[nH]c2=O)cc1Cl (centres unmarked) [Diclazuril], the “Relative cell viability (%)” value is reported as 219%. C[C@H]1O[C@@H](O[C@H]2[C@@H](O)C[C@H](O[C@H]3[C@@H](O)C[C@H](O[C@H]4CC[C@@]5(C)[C@H](CC[C@@H]6[C@@H]5C[C@@H](O)[C@]5(C)[C@@H](C7=CC(=O)OC7)CC[C@]65O)C4)O[C@@H]3C)O[C@@H]2C)C[C@H](O)[C@@H]1O [Digoxin] was tested, and the “Relative cell viability (%)” value was 5.758%. NC(=O)NO [Hydroxyurea] was tested, and the “Relative cell viability (%)” value was 70.34%. With CCOC(=O)[C@H](CCc1ccccc1)N[C@@H](C)C(=O)N1C(=O)N(C)C[C@H]1C(=O)O [Imidapril HCl] the “Relative cell viability (%)” value was 128.5%. COc1cc([C@@H]2c3cc4c(cc3[C@@H](O[C@@H]3O[C@@H]5CO[C@@H](C)O[C@H]5[C@H](O)[C@H]3O)[C@H]3COC(=O)[C@H]23)OCO4)cc(OC)c1O [Etoposide] was tested, and the “Relative cell viability (%)” value was 117.9%. CCOc1nc2cccc(C(=O)OCc3oc(=O)oc3C)c2n1Cc1ccc(-c2ccccc2-c2noc(=O)[nH]2)cc1 [Azilsartan Medoxomil] was tested, and the “Relative cell viability (%)” value was 116%. For CC(=O)O[C@]1(C(C)=O)CC[C@H]2[C@@H]3C=C(C)C4=CC(=O)CC[C@]4(C)[C@H]3CC[C@@]21C [Megestrol Acetate], the “Relative cell viability (%)” value was 68.07%. With Cc1cnc(Nc2ccc(OCCN3CCCC3)cc2)nc1Nc1cccc(S(=O)(=O)NC(C)(C)C)c1 [TG101348 (SAR302503)] the “Relative cell viability (%)” value was 16.99%. CCCCCOc1ccc(-c2ccc(-c3ccc(C(=O)N[C@H]4C[C@@H](O)[C@@H](O)NC(=O)[C@@H]5[C@@H](O)[C@@H](C)CN5C(=O)[C@H]([C@@H](C)O)NC(=O)[C@H]([C@H](O)[C@@H](O)c5ccc(O)cc5)NC(=O)[C@@H]5C[C@@H](O)CN5C(=O)[C@H]([C@@H](C)O)NC4=O)cc3)cc2)cc1 [Anidulafungin (LY303366)] ({pTerphenylCO(4''-OnC5H11)}-[Orn(4R-OH,5R-OH)]T[Hyp][hTyr(3S-OH,4S-OH)]T[Pro(3S-OH,4S-Me)]; lactam 1-C) was tested, and the “Relative cell viability (%)” value was 71.21%. With CCc1ccc(CCOc2ccc(CC3SC(=O)NC3=O)cc2)nc1 (centres unmarked) [Pioglitazone HCl] the “Relative cell viability (%)” value was 158.4%. For CN(C(=O)c1ccc(F)cc1C(F)(F)F)C1CCN(c2nnc(-c3ccnn3C)c3ccccc23)CC1 [Taladegib (LY2940680)], the “Relative cell viability (%)” value was 105.5%.
